“And” between values parts separate entries of the source, which are not always exact repeats. Equal entries are not always repeated. Structures can show the parent of a compound that is named as a salt.
Legend:
[1] = biological target: T1, Alpha-1D adrenergic receptor (Mus musculus, UniProt P97714)
T1 sequence (P97714 whole entry): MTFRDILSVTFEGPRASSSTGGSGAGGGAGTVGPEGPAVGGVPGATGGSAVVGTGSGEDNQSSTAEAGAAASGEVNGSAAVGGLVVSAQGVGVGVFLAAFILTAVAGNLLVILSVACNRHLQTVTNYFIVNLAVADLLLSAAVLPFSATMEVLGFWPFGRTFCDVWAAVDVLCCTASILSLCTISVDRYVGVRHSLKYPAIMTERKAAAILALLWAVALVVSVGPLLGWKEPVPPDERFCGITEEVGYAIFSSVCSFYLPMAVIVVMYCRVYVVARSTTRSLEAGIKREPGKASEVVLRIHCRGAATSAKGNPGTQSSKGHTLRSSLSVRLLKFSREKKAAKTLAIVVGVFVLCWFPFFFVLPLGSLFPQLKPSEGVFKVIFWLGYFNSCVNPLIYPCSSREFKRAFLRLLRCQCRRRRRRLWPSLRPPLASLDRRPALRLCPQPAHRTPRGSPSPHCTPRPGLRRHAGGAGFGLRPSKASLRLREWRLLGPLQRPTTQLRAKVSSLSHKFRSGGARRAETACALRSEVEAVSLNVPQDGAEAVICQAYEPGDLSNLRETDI

[2] = biological target: T2, Alpha-1A adrenergic receptor (Oryctolagus cuniculus, UniProt O02824)
T2 sequence (O02824 whole entry): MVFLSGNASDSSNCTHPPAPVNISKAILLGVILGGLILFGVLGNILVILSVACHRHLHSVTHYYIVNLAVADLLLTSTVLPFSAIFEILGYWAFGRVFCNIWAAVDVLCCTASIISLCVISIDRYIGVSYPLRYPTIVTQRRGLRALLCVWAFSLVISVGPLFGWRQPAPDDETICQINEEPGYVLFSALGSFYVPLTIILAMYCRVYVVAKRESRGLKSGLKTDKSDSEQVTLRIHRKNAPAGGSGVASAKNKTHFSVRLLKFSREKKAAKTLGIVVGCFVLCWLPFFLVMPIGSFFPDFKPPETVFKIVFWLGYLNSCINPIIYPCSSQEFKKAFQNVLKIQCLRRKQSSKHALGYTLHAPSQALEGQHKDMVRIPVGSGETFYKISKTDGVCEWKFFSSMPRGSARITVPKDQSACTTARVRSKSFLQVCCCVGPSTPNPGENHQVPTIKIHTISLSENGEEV

[3] = biological target: T3, Alpha-1A adrenergic receptor (Canis lupus familiaris, UniProt O77621)
T3 sequence (O77621 whole entry): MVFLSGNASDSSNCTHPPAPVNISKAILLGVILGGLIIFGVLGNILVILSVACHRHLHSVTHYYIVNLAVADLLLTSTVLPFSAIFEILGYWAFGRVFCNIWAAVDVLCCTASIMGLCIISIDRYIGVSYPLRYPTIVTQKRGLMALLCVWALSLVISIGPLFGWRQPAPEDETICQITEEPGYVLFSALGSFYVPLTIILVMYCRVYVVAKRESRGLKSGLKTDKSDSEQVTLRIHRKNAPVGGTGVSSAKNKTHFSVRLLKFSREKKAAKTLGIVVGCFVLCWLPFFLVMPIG

[4] = biological target: T4, Alpha-2A adrenergic receptor (Cavia porcellus, UniProt Q60474)
T4 sequence (Q60474 whole entry): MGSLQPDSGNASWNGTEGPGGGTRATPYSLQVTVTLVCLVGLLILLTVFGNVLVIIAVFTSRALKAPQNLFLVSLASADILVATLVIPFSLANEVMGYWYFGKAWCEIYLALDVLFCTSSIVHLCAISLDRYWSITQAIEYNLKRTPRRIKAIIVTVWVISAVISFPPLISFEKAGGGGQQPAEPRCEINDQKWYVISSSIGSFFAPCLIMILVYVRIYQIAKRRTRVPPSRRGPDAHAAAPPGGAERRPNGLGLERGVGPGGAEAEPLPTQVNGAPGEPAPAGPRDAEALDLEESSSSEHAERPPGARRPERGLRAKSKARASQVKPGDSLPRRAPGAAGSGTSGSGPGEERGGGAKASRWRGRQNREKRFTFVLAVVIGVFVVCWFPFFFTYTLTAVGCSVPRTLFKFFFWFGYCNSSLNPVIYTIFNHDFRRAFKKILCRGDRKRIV

[5] = biological target: T5, Alpha-2B adrenergic receptor (Canis lupus familiaris, UniProt Q2MDQ0)
T5 sequence (Q2MDQ0 whole entry): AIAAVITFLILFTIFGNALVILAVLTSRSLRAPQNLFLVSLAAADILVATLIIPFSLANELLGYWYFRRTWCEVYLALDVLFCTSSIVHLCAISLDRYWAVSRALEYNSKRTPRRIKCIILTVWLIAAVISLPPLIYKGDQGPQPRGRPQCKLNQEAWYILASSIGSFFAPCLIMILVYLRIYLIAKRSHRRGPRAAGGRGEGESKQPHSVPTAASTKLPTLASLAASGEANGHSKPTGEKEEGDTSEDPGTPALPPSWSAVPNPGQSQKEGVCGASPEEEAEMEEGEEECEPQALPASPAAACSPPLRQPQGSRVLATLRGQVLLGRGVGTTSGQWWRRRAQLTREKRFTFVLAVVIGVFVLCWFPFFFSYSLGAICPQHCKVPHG

[6] = biological target: T6, Alpha-2B adrenergic receptor (Oryctolagus cuniculus, UniProt O77830)
T6 sequence (O77830 whole entry): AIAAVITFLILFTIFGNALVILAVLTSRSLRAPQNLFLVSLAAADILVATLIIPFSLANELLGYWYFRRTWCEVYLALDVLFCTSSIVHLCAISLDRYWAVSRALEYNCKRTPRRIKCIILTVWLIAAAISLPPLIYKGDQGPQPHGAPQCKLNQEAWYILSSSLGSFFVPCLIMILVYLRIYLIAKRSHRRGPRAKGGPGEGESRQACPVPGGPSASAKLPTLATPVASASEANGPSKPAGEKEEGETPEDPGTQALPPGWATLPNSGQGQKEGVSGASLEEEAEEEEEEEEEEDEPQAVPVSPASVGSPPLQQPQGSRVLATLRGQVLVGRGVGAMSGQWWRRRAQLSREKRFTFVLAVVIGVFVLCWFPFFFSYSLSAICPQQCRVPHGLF

Ki [6] [µM]	SMILES	Ki [1] [µM]	Ki [2]	Ki [3] [µM]	Ki [4] [µM]	Ki [5] [µM]
	c1ccc2c(c1)OCC(C1=NCCN1)O2 (stereo not given)	0.012	2.3 µM			
	COC(=O)[C@H]1[C@H]2C[C@H]3c4[nH]c5ccccc5c4CCN3C[C@H]2CC[C@@H]1O [RAUWOLSCINE HYDROCHLORIDE]		1.8 µM and 4 µM and 1.3 µM	0.234		
	CN1CCc2cccc(Cl)c2CC1 [MLS002172470]		0.9 µM	1.1	0.013	0.042
0.021	COC(=O)[C@@H]1[C@H]2C[C@H]3c4[nH]c5ccccc5c4CCN3C[C@@H]2CC[C@@H]1O [yohimbic acid methyl ester]		1.1 µM and 0.275 µM			

Reference: BindingDB's records for PubMed 2867217 (Smith Kline & French Laboratories, 1986)
